Results from ChEMBL document CHEMBL1201862, “PubChem BioAssay data set” (2004).
Values joined by “and” are separate entries in the source; they are usually repeats but may differ in a detail not shown here. Equal entries are not always repeated.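 The compound was tested at five concentrations on cells cultured in 96-well plates, with a 48-hour exposure period. The concentration for 50% growth inhibition is given as GI50.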 Active and inactive are the calls of the source. Cut-off read from the data, not from the text of the source: active = GI50 up to about 1.1 µM and inactive = higher.

Columns and labels:
Assay in all cases: growth of human tumour cells (NCI), 48 h
SK-MEL-2 = system: SK-MEL-2
MCF7 = system: MCF7
HT-29 = system: HT-29
UACC-257 = system: UACC-257
HCT-15 = system: HCT-15
RXF 393 = system: RXF 393
SW-620 = system: SW-620
KM12 = system: KM12
SK-MEL-28 = system: SK-MEL-28
HOP-92 = system: HOP-92
MDA-MB-231 = system: MDA-MB-231
SF-268 = system: SF-268
PC-3 = system: PC-3
UACC-62 = system: UACC-62
TK-10 = system: TK-10
ACHN = system: ACHN
OVCAR-5 = system: OVCAR-5
A549 = system: A549
Hs-578T = system: Hs-578T
NCI/ADR-RES = system: NCI/ADR-RES
SR = system: SR
SK-MEL-5 = system: SK-MEL-5
Malme-3M = system: Malme-3M
U-251 = system: U-251
EKVX = system: EKVX
OVCAR-3 = system: OVCAR-3
HCC 2998 = system: HCC 2998
IGROV-1 = system: IGROV-1
M14 = system: M14
HOP-62 = system: HOP-62
COLO 205 = system: COLO 205
HL-60 = system: HL-60
A498 = system: A498
SNB-75 = system: SNB-75
CCRF-CEM = system: CCRF-CEM
UO-31 = system: UO-31
SF-295 = system: SF-295
NCI-H460 = system: NCI-H460
MDA-N = system: MDA-N
OVCAR-4 = system: OVCAR-4
MOLT-4 = system: MOLT-4
DU-145 = system: DU-145
NCI-H522 = system: NCI-H522
SK-OV-3 = system: SK-OV-3
MDA-MB-435 = system: MDA-MB-435
LOX IMVI = system: LOX IMVI
SF-539 = system: SF-539
OVCAR-8 = system: OVCAR-8
RPMI-8226 = system: RPMI-8226
BT-549 = system: BT-549
786-0 = system: 786-0
SNB-19 = system: SNB-19
T47D = system: T47D
CAKI-1 = system: CAKI-1
SN12C = system: SN12C
HCT-116 = system: HCT-116
NCI-H23 = system: NCI-H23
NCI-H226 = system: NCI-H226
K562 = system: K562

CC(=O)OC1COC(n2c(N)c(C#N)c(-c3ccccc3)c(C#N)c2=S)C(OC(C)=O)C1OC(C)=O (configuration not stated)
GI50 (SK-MEL-2): 20 µM (inactive) and 27.2 µM (inactive)
GI50 (MCF7): 34.4 µM (inactive) and 29.9 µM (inactive)
GI50 (HT-29): 35.9 µM (inactive) and 43.1 µM (inactive)
GI50 (UACC-257): 57.7 µM (inactive) and 80.9 µM (inactive)
GI50 (HCT-15): 52.6 µM and 72.6 µM
GI50 (RXF 393): 34.4 µM (inactive) and 33 µM (inactive)
GI50 (SW-620): 56.2 µM (inactive) and 64.3 µM (inactive)
GI50 (KM12): 67 µM (inactive) and 40.7 µM (inactive)
GI50 (SK-MEL-28): 55.7 µM (inactive) and 36.6 µM (inactive)
GI50 (HOP-92): 19.8 µM (inactive) and 14.8 µM (inactive)
GI50 (MDA-MB-231): 50.9 µM (inactive) and 56.6 µM (inactive)
GI50 (SF-268): 36 µM (inactive)
GI50 (PC-3): 43.9 µM (inactive) and 40.1 µM (inactive)
GI50 (UACC-62): 33 µM (inactive) and 35.1 µM (inactive)
GI50 (TK-10): 30.2 µM (inactive)
GI50 (ACHN): 45.7 µM (inactive) and 71.4 µM (inactive)
GI50 (OVCAR-5): 46.5 µM (inactive) and 89.1 µM (inactive)
GI50 (A549): 71 µM (inactive) and 85.9 µM (inactive)
GI50 (Hs-578T): 45.3 µM (inactive) and 37.4 µM (inactive)
GI50 (NCI/ADR-RES): > 100 µM (inactive) and 71.6 µM (inactive)
GI50 (SR): 19.6 µM (inactive) and 22.2 µM (inactive)
GI50 (SK-MEL-5): 37.9 µM (inactive) and 30.3 µM (inactive)
GI50 (Malme-3M): 34.3 µM (inactive) and 33.4 µM (inactive)
GI50 (U-251): 48.8 µM (inactive) and 53.1 µM (inactive)
GI50 (EKVX): 31.9 µM (inactive) and 29.9 µM (inactive)
GI50 (OVCAR-3): 28.9 µM (inactive) and 33.2 µM (inactive)
GI50 (HCC 2998): 25.6 µM (inactive) and 27.4 µM (inactive)
GI50 (IGROV-1): > 100 µM (inactive) and 68.5 µM (inactive)
GI50 (M14): 70.8 µM (inactive) and 64.1 µM (inactive)
GI50 (HOP-62): > 100 µM (inactive)
GI50 (COLO 205): 31.6 µM (inactive) and 31.3 µM (inactive)
GI50 (HL-60): 23.2 µM (inactive)
GI50 (A498): 24.8 µM (inactive) and 33.2 µM (inactive)
GI50 (SNB-75): 43.4 µM (inactive) and 24.4 µM (inactive)
GI50 (CCRF-CEM): 26.1 µM (inactive) and 35.2 µM (inactive)
GI50 (UO-31): 23.1 µM (inactive) and 36.5 µM (inactive)
GI50 (SF-295): > 100 µM (inactive)
GI50 (NCI-H460): 46.8 µM (inactive) and 65.9 µM (inactive)
GI50 (MDA-N): 26.6 µM (inactive) and 27.8 µM (inactive)
GI50 (OVCAR-4): 41 µM (inactive) and 38.7 µM (inactive)
GI50 (MOLT-4): 24.6 µM (inactive) and 24.3 µM (inactive)
GI50 (DU-145): 47.9 µM (inactive) and 38.4 µM (inactive)
GI50 (NCI-H522): 38.5 µM (inactive) and 40.8 µM (inactive)
GI50 (SK-OV-3): 38.3 µM (inactive) and 45 µM (inactive)
GI50 (MDA-MB-435): 27.8 µM (inactive) and 24.3 µM (inactive)
GI50 (LOX IMVI): 25.2 µM (inactive) and 27.6 µM (inactive)
GI50 (SF-539): 40.2 µM (inactive) and 32.4 µM (inactive)
GI50 (OVCAR-8): 31.6 µM (inactive) and 56.8 µM (inactive)
GI50 (RPMI-8226): 24.5 µM (inactive) and 28.6 µM (inactive)
GI50 (BT-549): 25.6 µM (inactive) and 22.8 µM (inactive)
GI50 (786-0): 36.9 µM (inactive) and 39.3 µM (inactive)
GI50 (SNB-19): 75.9 µM (inactive)
GI50 (T47D): 33 µM (inactive) and 28.8 µM (inactive)
GI50 (CAKI-1): 39.4 µM (inactive) and 40.7 µM (inactive)
GI50 (SN12C): 48.1 µM (inactive) and 36.7 µM (inactive)
GI50 (HCT-116): 45.5 µM (inactive) and 37.8 µM (inactive)

N#Cc1ccc(C2ON=C(c3ccccc3)N2C23CC4CC(CC(C4)C2)C3)cc1 (configuration not stated)
GI50 (SK-MEL-2): > 10 µM (inactive)
GI50 (MCF7): > 10 µM (inactive)
GI50 (HT-29): > 10 µM (inactive)
GI50 (UACC-257): > 10 µM (inactive)
GI50 (HCT-15): > 10 µM
GI50 (RXF 393): > 10 µM (inactive)
GI50 (SW-620): > 10 µM (inactive)
GI50 (KM12): > 10 µM (inactive)
GI50 (NCI-H23): > 10 µM (inactive)
GI50 (SK-MEL-28): > 10 µM (inactive)
GI50 (HOP-92): > 10 µM (inactive)
GI50 (MDA-MB-231): > 10 µM (inactive)
GI50 (SF-268): > 10 µM (inactive)
GI50 (PC-3): 7.98 µM (inactive)
GI50 (UACC-62): > 10 µM (inactive)
GI50 (TK-10): > 10 µM (inactive)
GI50 (ACHN): > 10 µM (inactive)
GI50 (OVCAR-5): > 10 µM (inactive)
GI50 (A549): > 10 µM (inactive)
GI50 (NCI-H226): 6.76 µM (inactive)
GI50 (Hs-578T): > 10 µM (inactive)
GI50 (NCI/ADR-RES): 5.36 nM (active)
GI50 (SR): 3.85 µM (inactive)
GI50 (SK-MEL-5): > 10 µM (inactive)
GI50 (Malme-3M): > 10 µM (inactive)
GI50 (U-251): > 10 µM (inactive)
GI50 (EKVX): > 10 µM (inactive)
GI50 (OVCAR-3): > 10 µM (inactive)
GI50 (HCC 2998): > 10 µM (inactive)
GI50 (IGROV-1): > 10 µM (inactive)
GI50 (M14): > 10 µM (inactive)
GI50 (HOP-62): > 10 µM (inactive)
GI50 (COLO 205): > 10 µM (inactive)
GI50 (HL-60): 4.05 µM (inactive)
GI50 (A498): > 10 µM (inactive)
GI50 (SNB-75): > 10 µM (inactive)
GI50 (CCRF-CEM): > 10 µM (inactive)
GI50 (SF-295): > 10 µM (inactive)
GI50 (NCI-H460): > 10 µM (inactive)
GI50 (MDA-N): > 10 µM (inactive)
GI50 (OVCAR-4): > 10 µM (inactive)
GI50 (MOLT-4): 9.66 µM (inactive)
GI50 (K562): > 10 µM (inactive)
GI50 (DU-145): > 10 µM (inactive)
GI50 (NCI-H522): > 10 µM (inactive)
GI50 (SK-OV-3): > 10 µM (inactive)
GI50 (MDA-MB-435): > 10 µM (inactive)
GI50 (LOX IMVI): > 10 µM (inactive)
GI50 (SF-539): > 10 µM (inactive)
GI50 (OVCAR-8): > 10 µM (inactive)
GI50 (RPMI-8226): 6.19 µM (inactive)
GI50 (BT-549): 5.66 µM (inactive)
GI50 (786-0): > 10 µM (inactive)
GI50 (SNB-19): > 10 µM (inactive)
GI50 (T47D): > 10 µM (inactive)
GI50 (CAKI-1): > 10 µM (inactive)
GI50 (SN12C): > 10 µM (inactive)
GI50 (HCT-116): > 10 µM (inactive)

Nc1c2c(nc3ccccc13)CCCc1ccccc1-2
GI50 (SK-MEL-2): 13.4 µM (inactive)
GI50 (MCF7): 13.1 µM (inactive)
GI50 (HT-29): 4.53 µM (inactive)
GI50 (UACC-257): 12.7 µM (inactive)
GI50 (HCT-15): 13.8 µM
GI50 (RXF 393): 11.4 µM (inactive)
GI50 (SW-620): 5.94 µM (inactive)
GI50 (KM12): 13.1 µM (inactive)
GI50 (NCI-H23): 16.3 µM (inactive)
GI50 (SK-MEL-28): 9.75 µM (inactive)
GI50 (HOP-92): 10.1 µM (inactive)
GI50 (MDA-MB-231): 5.38 µM (inactive)
GI50 (SF-268): 16.9 µM (inactive)
GI50 (PC-3): 14.3 µM (inactive)
GI50 (UACC-62): 6.7 µM (inactive)
GI50 (TK-10): 6.08 µM (inactive)
GI50 (ACHN): 10.3 µM (inactive)
GI50 (OVCAR-5): 12.4 µM (inactive)
GI50 (A549): 16.3 µM (inactive)
GI50 (NCI-H226): 15.9 µM (inactive)
GI50 (Hs-578T): 22.6 µM (inactive)
GI50 (NCI/ADR-RES): 20300 nM (inactive)
GI50 (SR): 7.35 µM (inactive)
GI50 (SK-MEL-5): 8.45 µM (inactive)
GI50 (Malme-3M): 18.5 µM (inactive)
GI50 (U-251): 11.3 µM (inactive)
GI50 (EKVX): 13.2 µM (inactive)
GI50 (OVCAR-3): 27 µM (inactive)
GI50 (HCC 2998): 1.83 µM (inactive)
GI50 (IGROV-1): 9.46 µM (inactive)
GI50 (M14): 7.91 µM (inactive)
GI50 (HOP-62): 12.4 µM (inactive)
GI50 (COLO 205): 8.32 µM (inactive)
GI50 (HL-60): 5.9 µM (inactive)
GI50 (A498): 8.43 µM (inactive)
GI50 (SNB-75): 13.5 µM (inactive)
GI50 (UO-31): 10.5 µM (inactive)
GI50 (SF-295): 7.23 µM (inactive)
GI50 (NCI-H460): 2.81 µM (inactive)
GI50 (MDA-N): 4.17 µM (inactive)
GI50 (OVCAR-4): 20.1 µM (inactive)
GI50 (MOLT-4): 16.6 µM (inactive)
GI50 (K562): 5.7 µM (inactive)
GI50 (DU-145): 21.5 µM (inactive)
GI50 (NCI-H522): 17.3 µM (inactive)
GI50 (SK-OV-3): 33.5 µM (inactive)
GI50 (MDA-MB-435): 11.3 µM (inactive)
GI50 (LOX IMVI): 8.69 µM (inactive)
GI50 (SF-539): 8.83 µM (inactive)
GI50 (OVCAR-8): 14.1 µM (inactive)
GI50 (RPMI-8226): 5.32 µM (inactive)
GI50 (BT-549): 28.8 µM (inactive)
GI50 (786-0): 11.3 µM (inactive)
GI50 (SNB-19): 11.3 µM (inactive)
GI50 (T47D): 11 µM (inactive)
GI50 (CAKI-1): 15.9 µM (inactive)
GI50 (SN12C): 12.8 µM (inactive)
GI50 (HCT-116): 4.78 µM (inactive)
